Measured values as given in US6620844B2, “Method for reducing blood insulin levels by reducing in vivo cathepsin L activity” (NewMillennium Pharmaceutical, Inc., priority 2001, dated 2003).

How the values were obtained:
[1] = test system: CCAAT/enhancer-binding protein-α (C/EBP-α); assay: C/EBP-α levels in human preadipocytes, Western blot; format: cell-based; details: human preadipocytes differentiated with inhibitor, FIG. 4
Procedure: FIG. 4. Inhibition of cathepsin L blocked the expression of CCAAT/enhancer-binding protein. Human preadipocytes were differentiated as in FIG. 2. A 10% gel was used to perform Western blot analysis using goat anti-human C/EBP-α polyclonal antibodies and the blot was detected using the corresponding HRP-conjugated secondary antibodies.
(§1) Human preadipocytes were initially cultured in MSCGM medium (BioWhitaker) at 37° C. and 5% CO2 for 7 to 12 days with 3-4 changes of media till complete confluence. Non-induced cells were kept in adipogenesis maintenance media containing 0.01 mg/ml of insulin, 0.05 units/ml of penicillin, 0.05 μg/ml of streptomycin, and 10% fetal bovine serum. To induce adipogenesis, complete confluent cells were cultured in adipogenesis induction medium containing 1 μM dexamethasone, 0.2 mM indomethacin, 0.01 mg/ml insulin, 0.5 mM 3-isobutyl-1-methyl-xanthine, 0.05 units/ml of penicillin, 0.05 μg/ml of streptomycin, and 10% fetal bovine serum in the presence and absence of protease inhibitors for 3 days followed by three days of culture in maintenance media. After three cycles of induction and maintenance, cells were cultured in maintenance media for additional 7 days with two changes of fresh media.
(§2) To evaluate the cell differentiation levels affected by aforementioned inhibitors, the levels of transcription factors CCAAT/enhancer-binding protein-α (C/EBP-α) as well as peroxisome proliferator-activated receptor-γ (PPAR-γ) from cells treated with and without inhibitors were measured. Both C/EBP-α and PPAR-γ are important adipocyte determination factors. Wu et al. (1999) Mol. Cell. 3:151-158; Tanaka et al. (1997) EMBO J. 16:7432-7443; and Tontonoz et al. (1994) Cell 79:1147-1156.

[2] = test system: insulin like growth factor I receptor (IGF-IR); assay: IGF-IR levels in human preadipocytes, Western blot; format: cell-based; details: 20 μM
Procedure: FIG. 3. […] Cells were treated as in FIG. 2. Western blot analysis was performed using goat anti-human IGF-1R polyclonal antibodies.
as §1
(§3) After differentiation, cells were collected, and lysed into 1×RIPA buffer. Protein concentrations were determined using Bio-Rad Dc protein assay system according to the manufacturer (Bio-Rad, Hercules, Calif.). Equal amount of proteins were separated on 7% SDS-PAGE for detecting IR and IGF-1R, 12% SDS-PAGE for detecting cathepsins S, K, and L antigens. Both IR and IGF-1R primary polyclonal antibodies were raised from goat and all cathepsin antibodies were polyclonal antibodies raised from rabbit. The corresponding HRP-conjugated secondary antibodies were used for detections.
To test which cathepsin is involved in the IR turnover, human preadipocytes (BioWhittaker, Walkersville, Md.) were induced to become adipocytes in the presence and absence of inhibitors. Differentiated adipocytes expressed more IR than controls as previously reported. Pederson et al. (2000) Biochem. Biophys. Res. Commun. 276:162-168. Cathepsin B inhibitor (CA 074, 10 μM) and catepsin S inhibitor (CLIK 060, 2 μM) had no effect on either IR turnover or differentiation (FIGS. 2). […]

[3] = test system: peroxisome proliferator-activated receptor-γ (PPAR-γ); assay: PPAR-γ levels in human preadipocytes, Western blot; format: cell-based; details: human preadipocytes differentiated with inhibitor, FIG. 5
Procedure: FIG. 5. Inhibition of cathepsin L blocked the expression of PPAR-γ. Human preadipocytes were used and Western blot analysis was performed as in FIG. 4 instead of using mouse anti-human PPAR-γ monoclonal antibodies as the primary antibodies.
as §1, §2

[4] = test system: insulin receptor β subunit; assay: Insulin receptor turnover in human preadipocytes, Western blot; format: cell-based
Procedure: FIG. 2. […] Human preadipocytes were incubated with and without inhibitors indicated at different doses, lysed, separated onto 7% SDS-PAGE, and probed with goat anti-human insulin receptor β-subunit polyclonal antibodies. Both mature β subunit and its precursor were indicated.
as §1, §3
To test which cathepsin is involved in the IR turnover, human preadipocytes (BioWhittaker, Walkersville, Md.) were induced to become adipocytes in the presence and absence of inhibitors. Differentiated adipocytes expressed more IR than controls as previously reported. Pederson et al. (2000) Biochem. Biophys. Res. Commun. 276:162-168. Cathepsin B inhibitor (CA 074, 10 μM) and catepsin S inhibitor (CLIK 060, 2 μM) had no effect on either IR turnover or differentiation (FIGS. 2). […] The same is true when the blot was tested with insulin like growth factor I receptor (IGF-IR) antibodies (FIG. 3).

[5] = test system: human preadipocytes; assay: Human preadipocyte adipogenesis, oil-red staining; format: cell-based; details: for effect on adipogenesis: human preadipocytes
Procedure: FIG. 6. Oil-red staining of human preadipocytes and adipocytes.
as §1
This hypothesis is further confirmed by oil-red staining of CLIK 148 or 195 treated preadipocytes (FIG. 6). In addition, inhibition of adiogenesis by these two inhibitors is dose dependent. Less than 50% of adipogenesis was blocked by 1 μM of such inhibitors. […] In contrast, 1 μM of CLIK 060, 1 or 10 μM of CA 074 had no effect on adipogenesis (data not shown). Therefore, these observations indicate that cathepsin L appears to play a more critical role than cathepsins S and K in adipogenesis by controlling insulin/IR complex turnover.

[6] = target: cathepsin S (Mus musculus, UniProt O70370); assay: Cysteine protease active site labeling in mouse peritoneal macrophages: cathepsin S; format: cell-based; set-up: endogenous in cells; host or cells: thioglycolate-elicited mouse peritoneal macrophages; details: 2-10 μM
Procedure: (§4) FIG. 1. Cysteine protease inhibition profile by synthetic inhibitors in mouse peritoneal macrophages. [^125I]-Z-Tyr-Ala-CHN2-labeled mouse peritoneal macrophages were lysed and separated onto 12% SDS-PAGE to visualize labeled active cathepsins. Doses and inhibitors used were all indicated.
(§5) Mouse peritoneal macrophages were generated by injecting mice with thioglycolate as described in Shi et al. (2000) J. Exp. Med. 191:[…]. After 3-4 days of incubation, peritoneal microphages were washed out using Tris-EDTA buffers containing 6 mM EDTA (pH 8.0). Cells were then seeded onto 24-well plates in DMEM with 10% FBS till complete spread. After cells were attached to the plates, different doses of inhibitors were added. After 2-3 hours of incubation, cells were labeled with [^125I]-Z-Tyr-Ala-CHN2 overnight at 37° C. to detect intracellular active cysteine proteases. Cells were lysed into 1× reducing protein sample buffer and separated onto 12% SDS-PAGE.
First, the synthetic small molecule compounds were tested for their selectivity toward different forms of cathepsin. Mouse peritoneal macrophages were cultured in the presence of selective inhibitors and cysteine protease active site labeling probe [^125I]-Z-Tyr-Ala-CHN2 (Sukhova et al., supra). […] In contrast, other inhibitors used had no effect on cathepsin B activity. […]

[7] = target: T1, cathepsin L (Mus musculus, UniProt P06797); assay: Cysteine protease active site labeling in mouse peritoneal macrophages: cathepsin L; format: cell-based
T1 construct: endogenous in cells; host or cells: thioglycolate-elicited mouse peritoneal macrophages
T1 sequence (P06797 114-334): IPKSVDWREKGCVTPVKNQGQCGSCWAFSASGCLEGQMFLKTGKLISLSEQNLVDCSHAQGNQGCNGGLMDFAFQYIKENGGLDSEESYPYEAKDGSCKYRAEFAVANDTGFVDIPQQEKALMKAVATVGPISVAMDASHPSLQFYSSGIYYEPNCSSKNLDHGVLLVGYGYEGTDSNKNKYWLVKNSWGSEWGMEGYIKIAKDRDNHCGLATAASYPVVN
Procedure: as §4, §5
First, the synthetic small molecule compounds were tested for their selectivity toward different forms of cathepsin. Mouse peritoneal macrophages were cultured in the presence of selective inhibitors and cysteine protease active site labeling probe [^125I]-Z-Tyr-Ala-CHN2 (Sukhova et al., supra). […] In contrast, other inhibitors used had no effect on cathepsin B activity. […] Therefore, these inhibitors can be utilized to test if the aforementioned cathepsins play roles in the breakdown of insulin receptor (IR) or IR turnover.

[8] = target: Cathepsin B (Homo sapiens, UniProt P07858); details: cited from earlier work
[9] = target: Cathepsin L (Homo sapiens, UniProt P07711); details: cited from earlier work
Sequence of Cathepsin L (P07711 114-333, species assumed): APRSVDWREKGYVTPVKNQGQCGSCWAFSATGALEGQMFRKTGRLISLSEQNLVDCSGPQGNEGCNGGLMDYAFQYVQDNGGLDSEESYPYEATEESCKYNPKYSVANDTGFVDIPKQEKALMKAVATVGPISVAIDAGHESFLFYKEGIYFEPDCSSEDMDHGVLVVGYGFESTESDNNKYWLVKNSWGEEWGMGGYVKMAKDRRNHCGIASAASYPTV

[10] = target: Cathepsin C (Homo sapiens, UniProt P53634); details: at 1 × 10^−6 M; cited from earlier work
Sequence of Cathepsin C (P53634 25-463, species assumed): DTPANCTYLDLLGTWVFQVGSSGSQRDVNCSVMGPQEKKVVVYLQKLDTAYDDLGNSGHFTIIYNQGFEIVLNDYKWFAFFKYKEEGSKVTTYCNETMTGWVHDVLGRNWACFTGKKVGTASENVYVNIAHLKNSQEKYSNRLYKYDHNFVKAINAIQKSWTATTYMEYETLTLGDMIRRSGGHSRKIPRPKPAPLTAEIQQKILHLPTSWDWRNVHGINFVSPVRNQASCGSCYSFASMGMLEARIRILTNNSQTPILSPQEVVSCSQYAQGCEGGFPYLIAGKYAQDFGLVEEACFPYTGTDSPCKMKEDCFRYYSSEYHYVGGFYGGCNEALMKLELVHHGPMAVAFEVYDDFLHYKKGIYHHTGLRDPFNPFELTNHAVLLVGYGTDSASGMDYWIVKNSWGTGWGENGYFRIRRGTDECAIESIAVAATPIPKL

[11] = target: T2, Cathepsin K (Homo sapiens, UniProt P43235); details: at 1 × 10^−6 M; cited from earlier work
T2 sequence (P43235 115-329): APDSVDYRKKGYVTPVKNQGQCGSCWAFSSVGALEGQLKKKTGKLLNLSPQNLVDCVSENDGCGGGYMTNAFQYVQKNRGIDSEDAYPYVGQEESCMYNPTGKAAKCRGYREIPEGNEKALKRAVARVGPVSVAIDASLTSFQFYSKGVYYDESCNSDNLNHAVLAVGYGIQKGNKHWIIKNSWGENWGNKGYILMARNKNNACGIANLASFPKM

[12] = target: Cathepsin S (Homo sapiens, UniProt P25774); details: at 1 × 10^−6 M; cited from earlier work
Sequence of Cathepsin S (P25774 115-331, species assumed): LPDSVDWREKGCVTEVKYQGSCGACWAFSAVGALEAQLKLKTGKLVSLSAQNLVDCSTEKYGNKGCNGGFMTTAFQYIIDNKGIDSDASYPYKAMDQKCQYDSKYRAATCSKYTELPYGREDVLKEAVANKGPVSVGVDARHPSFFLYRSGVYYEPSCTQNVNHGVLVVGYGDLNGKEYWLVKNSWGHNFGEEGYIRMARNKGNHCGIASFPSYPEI

[13] = target: T3, Papain (Carica papaya, UniProt P00784); details: cited from earlier work
T3 sequence (P00784 134-345): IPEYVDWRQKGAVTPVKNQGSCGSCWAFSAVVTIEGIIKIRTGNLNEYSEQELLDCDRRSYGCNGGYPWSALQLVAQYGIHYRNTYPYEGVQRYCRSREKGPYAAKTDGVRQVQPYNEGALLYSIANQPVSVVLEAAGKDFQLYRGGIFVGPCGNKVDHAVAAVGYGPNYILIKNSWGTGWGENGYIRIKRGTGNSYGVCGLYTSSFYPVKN

## CCOC(=O)[C@H]1O[C@@H]1C(=O)N[C@@H](CC(C)C)C(=O)NCCC(C)C [E64d]
[1]
  accumulation of 50 kDa C/EBP-α: blocking the accumulation
[2]
  levels of IGF-IR β subunit and its precursor (the same as for IR): increased levels
[3]
  accumulation of 50 kDa PPAR-γ: blocking the accumulation
[4]; 20 μM, human preadipocytes
  levels of 95 kDa IR β subunit and its precursor: increased levels

## CN(C)C(=O)[C@H](Cc1ccccc1)NC(=O)C1OC1C(=O)NC(CCCCN)C(=O)Nc1ccccc1.Cl (stereo in doubt) [CLIK 060, N-{L-3-trans[(1-phenylcarbamoyl-5-amino)pentylcarbamoyl]oxirane-2-carbonyl}-L-phenylalaninoldimethylamide hydrochloride]
[5]; 1 μM
  effect on adipogenesis: no effect
[5]; 2 μM
  differentiation of human preadipocytes: no effect
[5]; 10-15 μM (higher concentrations)
  effect on adipogenesis: adipogenesis inhibition
[6]
  cathepsin S activity (active site labeling): significantly inhibited
[7]; 2-10 μM, mouse peritoneal macrophages
  cathepsin L activity (active site labeling): affected at some level
[7]; 10-15 μM, FIG. 1
  cathepsin L activity (active site labeling): blocked
[4]; 2 μM, human preadipocytes induced to adipocytes
  IR turnover: no effect
[4]; 10-15 μM, human preadipocytes
  IR accumulation: IR accumulation

## CN(C)C(=O)[C@H](Cc1ccccc1)NC(=O)C1O[C@@H]1C(=O)NCCc1ccccn1 (some centres unmarked)
[8]; at 1 × 10^−6 M
  % of Inhibition, Cathepsin B: 0%
[9]; at 1 × 10^−6 M
  % of Inhibition, Cathepsin L: 100%
[10]
  % of Inhibition, Cathepsin C: 0%
[11]
  % of Inhibition, Cathepsin K: 0%
[12]
  % of Inhibition, Cathepsin S: 30%

## CCOC(=O)[C@H]1N[C@@H]1C(=O)NC(CC(C)C)C(=O)COC(=O)c1ccccc1 (some centres unmarked)
[8]
  Cathepsin B: K2nd: 1,607 M^−1Min^−1
[13]
  Papain: K2nd: 1,533 M^−1Min^−1
[9]
  Cathepsin L: K2nd: 16,261 M^−1Min^−1
